Data on one compound can be found in EP0462066A1, “Amorphous gemfibrozil” (WARNER-LAMBERT COMPANY, priority 1990, dated 1991).

In brackets after ≈: the same amount, converted by molar mass.

A short description of the data set: Dissolution / solubility in water over time, crystalline material compared with solid dispersion. It is filed as physicochemical.

Take `Cc1ccc(C)c(OCCCC(C)(C)C(=O)O)c1` [Crystalline, 5-(2,5-dimethylphenoxy)-2,2-dimethylpentanoic acid]: the concentration in solution (Time: One hour) (solubility at 1 h) came to 14.7 µg/mL (≈ 58.8 µM). The amount in solution (Time: Twenty Hours) (solubility at 20 h) came to 21.3 µg/mL (≈ 85.1 µM). Also, the solubility (in general, the concentration that dissolves in the medium under given conditions) at 24 h (Time: Twenty-four Hours) is 22.4 µg/mL (≈ 89.5 µM). For the same compound, the solubility at 2 h (Time: Two Hours) stood at 18.4 µg/mL (≈ 73.6 µM).
